Assays:
Assay type in all cases: functional, cell-based
A549 = test: Antiproliferative activity against human A549 cells assessed as inhibition of cell growth
HepG2 = test: Antiproliferative activity against human HepG2 cells assessed as inhibition of cell growth
U-937 = test: Antiproliferative activity against human U-937 cells assessed as inhibition of cell growth
Y79 = test: Antiproliferative activity against human Y79 cells assessed as inhibition of cell growth

IC50 (A549) [µM] | IC50 (HepG2) [µM] | IC50 (U-937) [µM] | SMILES | IC50 (Y79) [µM]
1.76 | 0.84 | 0.97 | COc1cc(Nc2nccc(-c3ccc4ncccc4c3)n2)cc(OC)c1OC | > 10
> 10 | > 10 | > 10 | COc1cc(Nc2cc(-c3ccc4c(c3)OCCO4)nc(N)n2)cc(OC)c1OC | > 10
3.88 | 3.77 | 1.31 | COc1cc(Nc2ccnc(-c3ccc4[nH]c5ccccc5c4c3)n2)cc(OC)c1OC | > 10
0.46 | 0.24 | 0.12 | COc1cc(Nc2nccc(-c3cc4ccccc4s3)n2)cc(OC)c1OC | > 10
2.29 | 1.22 | 0.34 | COc1cc(Nc2nccc(-c3cc4ccccc4o3)n2)cc(OC)c1OC | > 10
3.06 | 5.01 | 1.54 | COc1cc(Nc2ccnc(-c3csc4ccccc34)n2)cc(OC)c1OC | > 10
> 10 | > 10 | > 10 | COc1cc(Nc2ccnc(-c3ccc4ncccc4c3)n2)cc(OC)c1OC | > 10
> 10 | > 10 | > 10 | COc1cc(Nc2cc(-c3coc4ccccc34)ncn2)cc(OC)c1OC | > 10
4.42 | 4.38 | 2.41 | COc1cc(Nc2cc(-c3ccc4occc4c3)nc(N)n2)cc(OC)c1OC | > 10
> 10 | > 10 | > 10 | COc1cc(Nc2cc(-c3ccc4ncccc4c3)ncn2)cc(OC)c1OC | > 10
> 10 | > 10 | > 10 | COc1cc(Nc2cc(-c3ccc4c(c3)OCCO4)ncn2)cc(OC)c1OC | > 10
1.4 | 2.41 | 0.9 | COc1cc(Nc2ccnc(-c3coc4ccccc34)n2)cc(OC)c1OC | > 10
> 10 | > 10 | > 10 | COc1cc(Nc2ccnc(-c3ccc4occc4c3)n2)cc(OC)c1OC | > 10
> 10 | > 10 | > 10 | COc1cc(Nc2cc(-c3ccc4cc[nH]c4c3)ncn2)cc(OC)c1OC | > 10
> 10 | > 10 | > 10 | COc1cc(Nc2ccnc(-c3ccc4c(c3)OCCO4)n2)cc(OC)c1OC | > 10
3.03 | > 10 | 3.95 | COc1cc(Nc2cc(-c3ccc4[nH]c5ccccc5c4c3)ncn2)cc(OC)c1OC | > 10
> 10 | > 10 | > 10 | COc1cc(Nc2cc(-c3csc4ccccc34)ncn2)cc(OC)c1OC | > 10
> 10 | > 10 | > 10 | COc1cc(Nc2cc(-c3ccc4c(c3)OCO4)ncn2)cc(OC)c1OC | > 10
0.73 | 0.47 | 0.26 | COc1cc(Nc2nccc(-c3ccc4c(c3)CCO4)n2)cc(OC)c1OC | 0.6
> 10 | > 10 | > 10 | COc1cc(Nc2ccnc(-c3ccc4c(c3)OCO4)n2)cc(OC)c1OC | > 10
> 10 | > 10 | 7.17 | COc1cc(Nc2nccc(-c3ccc4sc5ccccc5c4c3)n2)cc(OC)c1OC | > 10

IC50 (A549) [µM] | IC50 (HepG2) [µM] | IC50 (U-937) [µM] | SMILES | IC50 (Y79) [µM]
> 10 | > 10 | > 10 | COc1cc(Nc2cc(-c3ccc4occc4c3)ncn2)cc(OC)c1OC | > 10
> 10 | > 10 | > 10 | COc1cc(Nc2ccnc(-c3cc4ccccc4s3)n2)cc(OC)c1OC | > 10
> 10 | > 10 | > 10 | COc1cc(Nc2cc(-c3cc4ccccc4o3)nc(N)n2)cc(OC)c1OC | > 10
> 10 | > 10 | > 10 | COc1cc(Nc2cc(-c3csc4ccccc34)nc(N)n2)cc(OC)c1OC | > 10
1.76 | 0.79 | 0.04 | COc1cc(Nc2nccc(-c3ccc4occc4c3)n2)cc(OC)c1OC | > 10
> 10 | > 10 | > 10 | COc1cc(Nc2cc(-c3ccc4c(c3)CCO4)ncn2)cc(OC)c1OC | > 10
> 10 | > 10 | > 10 | COc1cc(Nc2ccnc(-c3ccc4cc[nH]c4c3)n2)cc(OC)c1OC | > 10
> 10 | > 10 | > 10 | COc1cc(Nc2cc(-c3cccc4c3OCO4)nc(N)n2)cc(OC)c1OC | > 10
> 10 | > 10 | > 10 | COc1cc(Nc2cc(-c3cc4ccccc4o3)ncn2)cc(OC)c1OC | > 10
> 10 | > 10 | > 10 | COc1cc(Nc2ccnc(-c3cc4ccccc4o3)n2)cc(OC)c1OC | > 10
3.12 | 1.48 | 0.9 | COc1cc(Nc2nccc(-c3ccc4[nH]c5ccccc5c4c3)n2)cc(OC)c1OC | > 10
> 10 | > 10 | > 10 | COc1cc(Nc2ccnc(-c3ccc4c(c3)CCO4)n2)cc(OC)c1OC | > 10
1.92 | 2.51 | 2.12 | COc1cc(Nc2cc(-c3ccc4cc[nH]c4c3)nc(N)n2)cc(OC)c1OC | > 10
1.68 | 1.97 | 1.4 | COc1cc(Nc2cc(-c3coc4ccccc34)nc(N)n2)cc(OC)c1OC | > 10
3.83 | 4.19 | 3.52 | COc1cc(Nc2nccc(-c3coc4ccccc34)n2)cc(OC)c1OC | > 10
> 10 | 3.98 | 1.78 | COc1cc(Nc2nccc(-c3csc4ccccc34)n2)cc(OC)c1OC | > 10
> 10 | > 10 | > 10 | COc1cc(Nc2cc(-c3cc4ccccc4s3)nc(N)n2)cc(OC)c1OC | > 10
3.17 | 1.77 | 0.37 | COc1cc(Nc2nccc(-c3ccc4c(c3)OCO4)n2)cc(OC)c1OC | > 10
0.85 | 0.37 | 0.12 | COc1cc(Nc2nccc(-c3ccc4cc[nH]c4c3)n2)cc(OC)c1OC | > 10
> 10 | > 10 | > 10 | COc1cc(Nc2cc(-c3ccc4c(c3)CCO4)nc(N)n2)cc(OC)c1OC | > 10
> 10 | > 10 | > 10 | COc1cc(Nc2cc(-c3cc4ccccc4s3)ncn2)cc(OC)c1OC | > 10

Source: ChEMBL document CHEMBL5252592, “Design, synthesis, and biological activity evaluation of novel tubulin polymerization inhibitors based on pyrimidine ring skeletons” (Bioorg Med Chem Lett, 2023)
